Values of other authors in EP4755400A1, “ANTIBODY-DRUG CONJUGATE CONTAINING GLYCOSYLPYRIDINE LINKER” (Novocodex Biopharmaceuticals Co., Ltd., priority 2023, dated 2025).

System: human carcinoma lines

In the case of `COc1cccc2c1C(=O)c1c(O)c3c(c(O)c1C2=O)C[C@@](O)(C(=O)CO)C[C@@H]3O[C@H]1C[C@H](N)[C@H](O)[C@H](C)O1` [doxorubicin], the IC50 is listed as 100 to 200 nM.
